# Reference: paper PMC9968691, “Perfluoroalkyl substances (PFASs) are substrates of the renal human organic anion transporter 4 (OAT4)” (Archives of Toxicology, 2022)
# “Also recorded” adds a separate entry of the source. Marks after values point to notes of the source that are not given here.
# What was measured:
# [1] = test system: albumin; details: ref Allendorf et al. (2019); cited from earlier work
# [2] = target: T1, human URAT1 (Homo sapiens, UniProt Q96S37); assay: Screening of cellular PFAS accumulation in URAT1-transfected vs control-transfected HEK293 cells (PFAS mixture); type: cell-based; details: yes/no as identified in vitro in this study
# T1 construct: expressed in transfected cells; host or cells: HEK293 cells transduced with recombinant baculovirus (CMV promoter)
# T1 sequence (Q96S37 1-553): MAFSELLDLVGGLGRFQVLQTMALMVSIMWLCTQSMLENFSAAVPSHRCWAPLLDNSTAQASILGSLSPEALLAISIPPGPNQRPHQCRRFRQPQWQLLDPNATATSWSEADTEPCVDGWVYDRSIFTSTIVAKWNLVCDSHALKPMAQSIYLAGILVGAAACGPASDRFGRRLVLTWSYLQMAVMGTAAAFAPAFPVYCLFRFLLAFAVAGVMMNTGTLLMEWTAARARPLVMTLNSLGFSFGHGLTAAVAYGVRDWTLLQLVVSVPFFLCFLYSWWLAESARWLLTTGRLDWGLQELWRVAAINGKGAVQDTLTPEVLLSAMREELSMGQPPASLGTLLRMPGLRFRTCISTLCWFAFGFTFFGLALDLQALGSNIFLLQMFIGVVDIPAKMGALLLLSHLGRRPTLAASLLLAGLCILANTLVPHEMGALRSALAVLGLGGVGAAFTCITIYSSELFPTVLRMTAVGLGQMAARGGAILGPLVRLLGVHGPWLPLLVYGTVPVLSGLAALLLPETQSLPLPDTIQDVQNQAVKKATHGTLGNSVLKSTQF
# Excerpt: (§1) The recombinant baculoviruses that contain the cDNA of human transporters OAT4 and URAT1 downstream of a cytomegalovirus (CMV) promotor were generated as previously described (Smeets et al. [2020]). As a negative control, baculovirus containing the gene for enhanced yellow fluorescence protein (eYFP) was produced similarly. Moreover, transduction of HEK293 cells and uptake assays were essentially performed as previously described (Smeets et al. [2020]). The culture medium was removed and cells were washed with buffer (HBSS plus 10 mM HEPES, pH 7.4). Uptake was initiated by replacing this solution with 150 µL of fresh transport buffer (HBSS (Life Technologies Invitrogen (Carlsbad, CA, USA))-HEPES (Sigma-Aldrich), pH 7.4) supplemented with the PFASs for 10 min. To terminate the reaction, transport buffer was replaced with 400 µL ice-cold HBSS-HEPES buffer containing 0.5% BSA (m/v; Roche Diagnostics GmbH (Mannheim, Germany)), after which the cells were washed twice with ice-cold HBSS-HEPES. Cellular PFAS concentrations were determined based on the method described by Rosenmai et al. ([2018]). Briefly, cells were solubilised in 250 µL lysis buffer and cell lysates were stored in Eppendorf tubes at − 80 °C and defrozen when needed for LC–MS analysis and for quantification of the protein concentration.
# (§2) To 50 μL cell lysate, 850 μL methanol (Actu-All Chemicals, Oss, The Netherlands) containing internal standards (^13C4-PFHpA, ^13C4-PFOA, ^13C5-PFNA, ^13C2-PFDA, ^13C3-PFBS, ^18O2-PFHxS and ^13C4-PFOS (Wellington Laboratories, Canada) was added. These dilutions were vortexed well before centrifugation at maximum speed for 10 min at 4 °C. PFAS concentrations in the supernatant were determined using LC–MS/MS analysis. If required, samples were further diluted with methanol and containing internal standards. LC–MS/MS analysis was based on a Shimadzu UHPLC system containing: 2 pumps (LC 20AD xr); column oven (Shimadzu CTO-20AC); pump switch (Shimadzu FCV-11AL); degasser (Shimadzu DGU-20A3); and sample tray holder (Shimadzu SIL-20 AC XR model) (Shimadzu Corporation, Kyoto, Japan). An Acquity BEH-C18 analytical column (50 × 2.1 mm i.d., 1.7 μm, Waters, Milford, MA, USA) was used to separate the PFASs at a column temperature of 35 °C. In addition, a symmetry C18 analytical column (50 × 2.1 mm i.d., 5 µm, Waters, Milford, MA, USA) was used as a guard column, placed between the pump and the injector valve to isolate and delay interferences out of the LC system. The mobile phase consisted of 2 mM ammonium acetate (Merck Millipore, Darmstadt, Germany) in Milli-Q water (prepared using a Milli-Q system with a resistivity of at least 18.2 MΩ cm^−1 (Merck Millipore)) (mobile phase A) and Acetonitrile ULC/MS grade (Actu-All Chemicals, Oss, The Netherlands) (mobile phase B). The injection volume used was 20 μL. The chromatographic gradient was operated at a flow rate of 0.3 mL min^−1 starting from 25% mobile phase B in the first 0.1 min, a linear increase to 100% B in 6 min with a final hold of 2.5 min. The gradient was returned to 25% B within 0.1 min for 3.9 min to equilibrate before the next injection, resulting in a total run of 12.5 min.
# (§3) Cellular PFAS content was normalised to cellular protein. To that end, from each cell lysate, 25 µL was used to determine the protein concentration (technical duplicate) using the Pierce BCA Protein Assay Kit (Thermo Scientific, Waltham, MA). First, samples were diluted two times with lysis buffer directly in a 96-wells plate (PS, F-bottom, clear; Greiner Bio-One, Alphen aan de Rijn, The Netherlands), and in each plate, a BSA standard curve (0.05–2 mg mL^−1 in lysis buffer) was included allowing protein quantification of the samples. The manufacturer’s protocol was followed for the subsequent steps and absorbance was measured using a microplate reader (Synergy™ HT BioTek, Winooski, VT) at 562 nm. […]
# [3] = (average) serum half-life; ref Xu et al. (2020) for PFHpA; Olsen et al. (2007), Li et al. (2018), Xu et al. (2020) for PFOA, PFHxS, PFOS; Olsen et al. (2009) for PFBS; cited from earlier work
# [4] = test system: URAT1; parameters: method as in Yang et al. 2010; details: URAT1-expressing HEK293 cells; ref Yang et al. 2010; cited from earlier work
# [5] = target: T2, human OAT4 (Homo sapiens, UniProt Q9NSA0); assay: Screening of cellular PFAS accumulation in OAT4-transfected vs control-transfected HEK293 cells (PFAS mixture); type: cell-based; details: for Transport by OAT4 (cellular PFAS level in OAT4-transfected vs control-transfected cells; substantial = at least twofold higher): PFAS mixture, each 1 µM, 10 min; for OAT4 substrate: yes/no as identified in vitro in this study
# T2 construct: expressed in transfected cells; host or cells: HEK293 cells transduced with recombinant baculovirus (CMV promoter)
# T2 sequence (Q9NSA0 1-550): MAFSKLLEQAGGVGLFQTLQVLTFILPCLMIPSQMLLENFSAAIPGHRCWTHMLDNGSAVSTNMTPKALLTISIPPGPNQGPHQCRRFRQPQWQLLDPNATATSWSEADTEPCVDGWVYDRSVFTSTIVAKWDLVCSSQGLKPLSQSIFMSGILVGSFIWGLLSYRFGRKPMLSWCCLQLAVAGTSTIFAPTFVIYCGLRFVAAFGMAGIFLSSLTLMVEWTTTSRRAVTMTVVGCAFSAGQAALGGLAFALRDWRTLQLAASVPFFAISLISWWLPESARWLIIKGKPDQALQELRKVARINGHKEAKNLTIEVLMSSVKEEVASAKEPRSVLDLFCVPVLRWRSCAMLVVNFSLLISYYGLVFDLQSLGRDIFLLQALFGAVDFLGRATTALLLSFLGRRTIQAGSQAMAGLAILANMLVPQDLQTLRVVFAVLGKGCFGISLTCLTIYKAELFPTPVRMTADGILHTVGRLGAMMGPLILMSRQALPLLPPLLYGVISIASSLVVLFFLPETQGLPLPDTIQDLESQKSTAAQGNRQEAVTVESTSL
# Excerpt: as §1, §2, §3
# [6] = test system: OAT4; parameters: method as in Yang et al. 2010; details: OAT4-expressing CHO cells; ref Yang et al. 2010; cited from earlier work
# [7] = target: T2, human OAT4; assay: OAT4-mediated cellular uptake kinetics (Michaelis–Menten) in OAT4-transfected vs control-transfected HEK293 cells; type: cell-based; details: OAT4-transfected minus control-transfected HEK293 cells, 1 min exposure, 1-300 µM; best-fit value (standard error)
# Protocol: OAT4- and control-transfected cells were exposed for 1 min to a range of PFAS concentrations (1, 3, 10, 30, 100 and 300 µM) and cellular amounts were determined.
# OAT4-transfected cells and control-transfected cells were exposed for 1 min to a range of PFAS concentrations and cellular amounts were determined. Amounts obtained in control-transfected cells were subtracted from amounts obtained in OAT4-transfected cells to obtain OAT4-mediated cellular uptake rates.
# [8] = test system: URAT1; parameters: method as in Iwanaga et al. 2005; Morrissey et al. 2012; details: probe substrate; ref Iwanaga et al. 2005; Morrissey et al. 2012; cited from earlier work
# [9] = test system: OAT4; parameters: method as in Kimura et al. 2002; Morrissey et al. 2012; details: probe substrate; ref Kimura et al. 2002; Morrissey et al. 2012; cited from earlier work
Structure (SMILES),Reported albumin/water partition coefficients [1] [L/kg],URAT1 substrate [2],Reported half-life in humans [3],Km [4] [µM],Vmax [4] [nmol min^−1 mg protein^−1],Transport by OAT4 (cellular PFAS level in OAT4-transfected vs control-transfected cells; substantial = at least twofold higher) [5],OAT4 substrate [5],Km [6] [µM],Vmax [6] [nmol min^−1 mg protein^−1],Apparent Vmax [7] [nmol min^−1 mg protein^−1],URAT1 substrate [8],OAT4 substrate [9]
"O=C(O)C(F)(F)C(F)(F)C(F)(F)C(F)(F)C(F)(F)C(F)(F)C(F)(F)F [PFOA, perfluorooctanoic acid]",4.2,No,1.8–3.8^c years,64,0.32,substantial transport; also recorded: more than twofold increase,Yes,310,37,,,
"O=S(=O)(O)C(F)(F)C(F)(F)C(F)(F)C(F)(F)C(F)(F)C(F)(F)C(F)(F)C(F)(F)F [PFOS, perfluorooctane sulfonate]",4.7,No,1.8–5.4^c years,,,substantial transport; also recorded: more than twofold increase,Yes,,,2.2,,
"O=c1[nH]c(=O)c2[nH]c(=O)[nH]c2[nH]1 [Uric acid, uric acid]",,,,,,,,,,,Yes,
"CCCCC[C@H](O)/C=C/[C@H]1[C@H](O)CC(=O)[C@@H]1C/C=C\CCCC(=O)O [Prostaglandin E2, prostaglandin E2]",,,,,,,,,,,,Yes
